Data published in patent US9133181B2, “Substituted 6-(4-hydroxy-phenyl)-1H-pyrazolo[3,4-b]pyridine derivatives as kinase inhibitors” (SANOFI, priority 2012, dated 2015).

target: T1, human full-length recombinant PKC βII (Homo sapiens, UniProt P05771); assay: Determination of PKC βII inhibition (Caliper mobility shift kinase assay); type: biochemical; details: final compound concentration 1.14 μM (±0.15 μM); 60 min incubation at 32° C.
T1 construct: Active human full-length recombinant PKC βII; purchased Invitrogen GmbH, Darmstadt, Germany
T1 sequence (P05771 1-673 isoform P05771-2): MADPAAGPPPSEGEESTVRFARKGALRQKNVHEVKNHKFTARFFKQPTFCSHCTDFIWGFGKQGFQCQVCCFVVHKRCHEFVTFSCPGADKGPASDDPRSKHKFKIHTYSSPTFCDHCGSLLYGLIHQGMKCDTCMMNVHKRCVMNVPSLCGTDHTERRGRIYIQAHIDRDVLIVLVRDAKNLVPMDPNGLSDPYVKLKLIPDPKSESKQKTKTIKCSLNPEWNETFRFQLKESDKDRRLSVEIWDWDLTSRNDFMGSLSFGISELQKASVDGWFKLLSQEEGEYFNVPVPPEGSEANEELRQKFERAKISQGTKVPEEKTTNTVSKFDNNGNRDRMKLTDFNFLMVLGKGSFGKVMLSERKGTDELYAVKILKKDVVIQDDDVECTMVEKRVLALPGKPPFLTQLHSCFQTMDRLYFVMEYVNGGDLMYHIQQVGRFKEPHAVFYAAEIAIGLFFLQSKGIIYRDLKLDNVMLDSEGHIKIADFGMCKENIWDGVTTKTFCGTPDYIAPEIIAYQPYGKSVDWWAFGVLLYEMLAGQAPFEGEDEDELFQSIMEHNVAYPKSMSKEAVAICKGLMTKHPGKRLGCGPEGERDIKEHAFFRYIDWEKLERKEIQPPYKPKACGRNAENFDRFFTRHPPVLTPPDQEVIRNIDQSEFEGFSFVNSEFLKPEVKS
Outline: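 Compound was tested at a final 1.14 µM (±0.15 µM), with % inhibition derived from the product/(substrate+product) peak ratio on a Caliper mobility-shift read-out. Full-length PKC βII was activated by CaCl2, PS and DAG in pH 7.4 Hepes/MgCl2. Peptide and ATP were at 3 µM and 120 µM in the added mix. Incubation was 60 min at 32 °C.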

| inhibition at 1.14 µM [%] | SMILES |
| --- | --- |
| 98 | CC[C@]1(C)CNC(C)(C)CN1Cc1cc(-c2ccc(O)cc2)nc2[nH]nc(C)c12 [Example 141, 4-[4-((R)-2-Ethyl-2,5,5-trimethyl-piperazin-1-ylmethyl)-3-methyl-1H-pyrazolo[3,4-b]pyridin-6-yl]-phenol] |
| 100 | CC[C@@]1(C)CNC(C)(C)CN1Cc1cc(-c2ccc(O)cc2)nc2[nH]nc(C)c12 [Example 142, 4-[4-((S)-2-Ethyl-2,5,5-trimethyl-piperazin-1-ylmethyl)-3-methyl-1H-pyrazolo[3,4-b]pyridin-6-yl]-phenol] |
| 101 | CC[C@H]1CNC(C)(C)CN1Cc1cc(-c2ccc(O)cc2F)nc2[nH]nc(C)c12 [Example 143, 4-[4-((S)-2-Ethyl-5,5-dimethyl-piperazin-1-ylmethyl)-3-methyl-1H-pyrazolo[3,4-b]pyridin-6-yl]-3-fluoro-phenol] |
| 98 | CC[C@@H]1CNC(C)(C)CN1Cc1cc(-c2ccc(O)cc2F)nc2[nH]nc(C)c12 [Example 144, 4-[4-((R)-2-Ethyl-5,5-dimethyl-piperazin-1-ylmethyl)-3-methyl-1H-pyrazolo[3,4-b]pyridin-6-yl]-3-fluoro-phenol] |
| 95 | CC[C@H]1CNC(C)(C)CN1Cc1cc(-c2ccc(O)cc2)nc2[nH]nc(C)c12 [Example 145, 4-[4-((S)-2-Ethyl-5,5-dimethyl-piperazin-1-ylmethyl)-3-methyl-1H-pyrazolo[3,4-b]pyridin-6-yl]-phenol] |
| 99 | CC[C@@H]1CNC(C)(C)CN1Cc1cc(-c2ccc(O)cc2)nc2[nH]nc(C)c12 [Example 146, 4-[4-((R)-2-Ethyl-5,5-dimethyl-piperazin-1-ylmethyl)-3-methyl-1H-pyrazolo[3,4-b]pyridin-6-yl]-phenol] |
| 100 | Cc1n[nH]c2nc(-c3ccc(O)cc3F)cc(CN3CCC[C@](C)(N)C3)c12 [Example 147, 4-[4-((S)-3-Amino-3-methyl-piperidin-1-ylmethyl)-3-methyl-1H-pyrazolo[3,4-b]pyridin-6-yl]-3-fluoro-phenol] |
| 99 | Cc1n[nH]c2nc(-c3ccc(O)cc3F)cc(CN3CCC[C@@](C)(N)C3)c12 [Example 148, 4-[4-((R)-3-Amino-3-methyl-piperidin-1-ylmethyl)-3-methyl-1H-pyrazolo[3,4-b]pyridin-6-yl]-3-fluoro-phenol] |
| 98 | Cc1n[nH]c2nc(-c3ccc(O)cc3F)cc(CN3C[C@@](C)(C4CC4)NCC3(C)C)c12 [Example 149, 4-[4-((R)-5-Cyclopropyl-2,2,5-trimethyl-piperazin-1-ylmethyl)-3-methyl-1H-pyrazolo[3,4-b]pyridin-6-yl]-3-fluoro-phenol] |
| 100 | Cc1n[nH]c2nc(-c3ccc(O)cc3F)cc(CN3C[C@](C)(C4CC4)NCC3(C)C)c12 [Example 150, 4-[4-((S)-5-Cyclopropyl-2,2,5-trimethyl-piperazin-1-ylmethyl)-3-methyl-1H-pyrazolo[3,4-b]pyridin-6-yl]-3-fluoro-phenol] |
| 90 | Cc1n[nH]c2nc(-c3ccc(O)cc3F)cc(CN3C[C@H](C)NC[C@@H]3C(F)(F)F)c12 [Example 151, 3-Fluoro-4-[3-methyl-4-((2R,5S)-5-methyl-2-trifluoromethyl-piperazin-1-ylmethyl)-1H-pyrazolo[3,4-b]pyridin-6-yl]-phenol] |
| 93 | Cc1n[nH]c2nc(-c3ccc(O)cc3F)cc(CN3C[C@@H](C)NC[C@@H]3C(F)(F)F)c12 [Example 152, 3-Fluoro-4-[3-methyl-4-((2R,5R)-5-methyl-2-trifluoromethyl-piperazin-1-ylmethyl)-1H-pyrazolo[3,4-b]pyridin-6-yl]-phenol] |
| 97 | Cc1n[nH]c2nc(-c3ccc(O)cc3F)cc(CN3C[C@@H](C)NC[C@H]3C(F)(F)F)c12 [Example 153, 3-Fluoro-4-[3-methyl-4-((2S,5R)-5-methyl-2-trifluoromethyl-piperazin-1-ylmethyl)-1H-pyrazolo[3,4-b]pyridin-6-yl]-phenol] |
| 92 | Cc1n[nH]c2nc(-c3ccc(O)cc3F)cc(CN3C[C@H](C)NC[C@H]3C(F)(F)F)c12 [Example 154, 3-Fluoro-4-[3-methyl-4-((2S,5S)-5-methyl-2-trifluoromethyl-piperazin-1-ylmethyl)-1H-pyrazolo[3,4-b]pyridin-6-yl]-phenol] |
